From ChEMBL document CHEMBL3044870, “Effect of clomazone on various market classes of dry beans” (Crop Prot, 2007)

Key:
Assay type in all cases: organism-based
Details in all cases: in vivo, other
Phaseolus vulgaris [1] = experiment: Phytotoxicity against Phaseolus vulgaris (brown beans) assessed as plant height at 2232 g a.i./ha applied pre-emergence 1 to 2 days post-planting measured on day 28 post-emergence (reference value: 37 cm)
Phaseolus vulgaris [2] = experiment: Phytotoxicity against Phaseolus vulgaris (brown beans) assessed as yield at 2232 g a.i./ha applied pre-emergence 1 to 2 days post-planting measured on day 42 post-emergence (reference value: 2.5 tons/ha)
Phaseolus vulgaris [3] = experiment: Phytotoxicity against Phaseolus vulgaris (white beans) assessed as visual crop injury at 1116 g a.i./ha applied pre-emergence 1 to 2 days post-planting measured on day 14 post-emergence relative to control
Phaseolus vulgaris [4] = experiment: Phytotoxicity against Phaseolus vulgaris (yellow eye beans) assessed as plant height at 1116 g a.i./ha applied pre-emergence 1 to 2 days post-planting measured on day 28 post-emergence (reference value: 38 cm)
Phaseolus vulgaris [5] = experiment: Phytotoxicity against Phaseolus vulgaris (cranberry beans) assessed as yield at 2232 g a.i./ha applied pre-emergence 1 to 2 days post-planting measured on day 42 post-emergence (reference value: 3.1 tons/ha)
Phaseolus vulgaris [6] = experiment: Phytotoxicity against Phaseolus vulgaris (yellow eye beans) assessed as shoot dry weight at 2232 g a.i./ha applied pre-emergence 1 to 2 days post-planting measured on day 42 post-emergence (reference value: 162 g/m)
Phaseolus vulgaris [7] = experiment: Phytotoxicity against Phaseolus vulgaris (pinto beans) assessed as visual crop injury at 1116 g a.i./ha applied pre-emergence 1 to 2 days post-planting measured on day 14 post-emergence relative to control

CC1(C)CON(Cc2ccccc2Cl)C1=O [CLOMAZONE]
Activity (Phaseolus vulgaris [1]): 35 cm
Crop_yield (Phaseolus vulgaris [2]): 2.7 tons/ha
Activity (Phaseolus vulgaris [3]): 2%
Activity (Phaseolus vulgaris [4]): 36 cm
Crop_yield (Phaseolus vulgaris [5]): 3 tons/ha
Activity (Phaseolus vulgaris [6]): 130 g/m
Activity (Phaseolus vulgaris [7]): 4%
